Measurements from patent US20250270180A1, “MEK INHIBITORS AND THERAPEUTIC USES THEREOF” (Immuneering Corporation, priority 2020, published 2025).

Legend:
[1] = test system: A549 (KRAS-G12S) pERK; assay: Cell-based pERK dose response study, A549
Description: (§1) Materials and Methods: A549 or A375 cells were seeded in 6-well plates at an appropriate seeding density on day 0. On day 2 or 3, after checking the health and confluency of cells, the media was aspirated and replaced with 1 mL media containing a predetermined concentration of compound and incubated for 2 hours. After 2 hours, the media was aspirated, and the cells washed 2 times with cold PBS. Cells were lysed on ice, with 50 uL 1×CST lysis buffer+1 mM PMSF for 5 minutes. After 5 minutes, cells were removed using a scraper and transferred to cold 1.5 mL tubes, and centrifuged for 10 min, 4° C., 14,000×g. Supernatant was gently removed and snap frozen in liquid nitrogen. Protein concentration of the lysate was determined using Bradford Reagent (analyzed using SpectraMax M2E) and diluted to 1 mg/mL or pERK or 1.5 mg/mL for pMEK analysis. […] All dilutions were in Milk-free antibody diluent.

[2] = biological target: hERG Channel (Homo sapiens, UniProt Q12809); assay: in vitro
Chain of hERG Channel (Q12809 whole entry): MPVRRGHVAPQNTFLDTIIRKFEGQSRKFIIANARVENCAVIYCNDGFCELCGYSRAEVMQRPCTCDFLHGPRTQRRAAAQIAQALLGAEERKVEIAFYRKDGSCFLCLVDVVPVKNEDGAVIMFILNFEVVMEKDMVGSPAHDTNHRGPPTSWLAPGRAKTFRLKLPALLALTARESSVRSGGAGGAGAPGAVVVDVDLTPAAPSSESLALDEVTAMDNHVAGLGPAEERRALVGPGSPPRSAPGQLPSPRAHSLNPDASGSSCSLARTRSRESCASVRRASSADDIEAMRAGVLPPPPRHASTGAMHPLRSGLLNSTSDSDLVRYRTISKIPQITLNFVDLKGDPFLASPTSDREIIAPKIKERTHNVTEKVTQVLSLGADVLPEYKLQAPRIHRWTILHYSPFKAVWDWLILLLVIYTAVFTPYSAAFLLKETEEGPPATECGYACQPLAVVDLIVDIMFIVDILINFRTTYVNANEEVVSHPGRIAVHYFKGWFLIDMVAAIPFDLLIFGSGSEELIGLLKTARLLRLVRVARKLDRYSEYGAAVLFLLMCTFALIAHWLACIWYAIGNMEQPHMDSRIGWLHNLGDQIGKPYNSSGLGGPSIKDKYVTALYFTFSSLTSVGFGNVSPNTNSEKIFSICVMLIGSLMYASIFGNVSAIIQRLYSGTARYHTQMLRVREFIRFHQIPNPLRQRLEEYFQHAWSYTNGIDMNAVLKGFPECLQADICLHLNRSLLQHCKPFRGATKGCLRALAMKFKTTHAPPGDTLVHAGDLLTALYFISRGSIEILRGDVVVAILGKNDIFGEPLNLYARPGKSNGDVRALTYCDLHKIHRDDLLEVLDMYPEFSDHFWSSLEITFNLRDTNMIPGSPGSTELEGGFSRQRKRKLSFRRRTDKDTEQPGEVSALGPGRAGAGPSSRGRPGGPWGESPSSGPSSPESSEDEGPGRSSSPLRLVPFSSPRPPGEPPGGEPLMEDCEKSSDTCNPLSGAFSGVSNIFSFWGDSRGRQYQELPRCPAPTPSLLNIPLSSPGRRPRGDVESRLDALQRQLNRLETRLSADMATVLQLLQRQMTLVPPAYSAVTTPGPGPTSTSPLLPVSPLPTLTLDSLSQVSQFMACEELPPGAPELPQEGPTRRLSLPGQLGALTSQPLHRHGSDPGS

[3] = Mouse liver microsome stability (t1/2, Clint); type: in vitro ADME; conditions: liver microsomes, pH 7.4, 0.5 mg/ml microsomal protein
Description: (Eppendorf 5804R). […] The disappearance of the parent compound was determined.

[4] = Metabolite ID study, six species hepatocytes; type: in vitro ADME; conditions: hepatocyte incubations, T=60 min
Description: (§2) Animal Studies: Compound 9 was tested using six species hepatocytes in a metabolite ID study (T=60 min).
(§3) Cryopreserved hepatocytes from a selected species were thawed and incubated in duplicate with 10 uM compound 9 in Krebs-Henseleit buffer. […] Viability of hepatocytes was >70% after thawing.
(§4) (Eppendorf 5804R). […] The disappearance of the parent compound was determined, and the formation of metabolites was evaluated. Metabolites present at >1% of total compound related material (based on peak area) were identified by interpretation of the LC-MS/MS data.
(§5) The spectra obtained from all samples were screened for the presence of m/z values that are absent in the blank incubations (incubations with hepatocytes without compound and with vehicle control, and incubations of compound in buffer without hepatocytes). T=60 min incubations were used as an initial screening. All possible metabolites observed were semi-quantified by MS response (peak area). MS2 spectra were interpreted to determine possible location of the metabolism reaction. The presence of metabolites identified was compared across the selected species.
Primary metabolite shown for each species in bold font. Several masses found were also present in incubations with compound in buffer and were considered not to be metabolites.

[5] = test system: A549 pERK; assay: A549-pERK, 2 h (quantitative Western, Jess); type: cell-based; conditions: Homo sapiens, A549, 2 h, phospho:total ratio normalized to DMSO control
Procedure, shortened: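 Cells treated in duplicate for 2 h with compound, lysed and protein-normalised (1 mg/mL pERK, 1.5 mg/mL pMEK). Quantitative capillary Western; phospho/total protein ratio normalised to DMSO.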

[6] = Human liver microsome stability (t1/2, Clint); type: in vitro ADME; conditions: microsomes, pH 7.4, 0.5 mg/ml microsomal protein
[7] = Metabolite ID study, monkey hepatocytes; type: in vitro ADME; conditions: 10 uM compound 9, T=60 min
Description: as §2, §3, §4
(§6) MS settings were optimized for the flow rate. Full scan spectra were acquired in combination with data dependent MS2.
as §5

[8] = Single dose PK profile (plasma and tumor) in Colon26 tumor bearing mice; type: in vivo; conditions: female, mouse
Description: Female mice (either athymic BALC/c nude, or BALB/c mice) were inoculated with a single subcutaneous injection of 0.1 ml of mouse Colon-26 cell suspension (1×10^5 cells per animal) in the right flank region. Colon26 (C26) tumor bearing mice received a single dose (3-4 mice/treatment) of vehicle (10% DMSO/90% [20% SBE-B-CD in saline], pH 5) containing compounds at indicated dose by gavage (p.o.) or intravenous administration (i.v.) and at various time points (0.16, 0.5, 1, 2, 4, 8, 12, 16, 24-hour) post dose humanely euthanized. Blood was obtained through cardiac puncture into K+EDTA tubes, mixed by inversion and centrifuged to obtain the plasma. Tissues were excised, cleaned of surrounding tissues. All samples immediately snap frozen in liquid N2 prior to LC-MS/MS analysis (using Agilent Poroshell-120 EC-C18 (4.0 μm) 2.1×50 mm, and a Water+API-4000 Electrospray MS unit). The results of this study are illustrated in FIGS. 16, and 17. Tables 11 describes a single does PK profile (plasma) and Table 12 describes a single dose PK profile (tumor).

[9] = Metabolite ID study, human hepatocytes; type: in vitro ADME; conditions: 10 uM compound 9, T=60 min
Description: as §2, §3, §4, §6, §5

[10] = test system: A375 pERK:tERK; assay: Cell-based pERK:tERK, A375
Description: as §1

[11] = Metabolite ID study, rat hepatocytes; type: in vitro ADME; conditions: 10 uM compound 9, T=60 min
Description: as §2, §3, §4, §6, §5

[12] = athymic BALB/c nude or BALB/c, iv, 25 mg/kg, plasma, 25 mpk i.v.
[13] = athymic BALB/c nude or BALB/c, po, 25 mg/kg, plasma, 25 mpk p.o.
[14] = athymic BALB/c nude or BALB/c, po, 100 mg/kg, plasma, 100 mpk p.o.
[15] = iv, 25 mg/kg, plasma, 25 mpk i.v.
[16] = iv, 25 mg/kg, tumor, 25 mpk i.v.
[17] = po, 25 mg/kg, plasma, 25 mpk p.o.
[18] = po, 25 mg/kg, tumor, 25 mpk p.o.
[19] = po, 100 mg/kg, plasma, 100 mpk p.o.
[20] = po, 100 mg/kg, tumor, 100 mpk p.o.

For `CNS(=O)(=O)Nc1cccc(Cc2c(CN(C)C)c3ccc(OC(=O)N(C)C)cc3oc2=O)c1F` [Compound 9], the “A549 pERK:tERK ratio [10 nM; 2 hr]” value ([1]; 10 nM, 2 hr) was 0.62, the IC50 ([1]; Homo sapiens, A549, 12-point dose, 2 hours) was 0.0198 µM and the IC50 [2] was 26.2 µM. For the same compound, the half-life at 1 uM [3] was 44 min, the microsomal CLint at 1 uM [3] was 32 µL/min/mg and the “extent of metabolism in hepatocytes from different species” value [4] was “not extensively metabolized”. The activity at 0.01 µM ([5]; 10 nM) was 63%, the activity at 10 µM ([5]; 10 uM) was 1.21% and the half-life at 1 uM [6] was 35 min. For the same compound, the microsomal CLint at 1 uM [6] was 40 µL/min/mg, the “% of total compound related material based on peak area, Monkey” value [7] was 95% and the Tmax [8, 12] was 30 min. The half-life [8, 12] was 37.8 min, the bioavailability [8, 13] was 75.6% and the half-life [8, 13] was 79.2 min. For the same compound, the bioavailability [8, 14] was 192%, the half-life [8, 14] was 73.2 min and the AUC(0-inf) [8, 15] was 5810 ng·h/mL. The AUC(0-t) [8, 15] was 5810 ng·h/mL, the Cmax [8, 15] was 6520 ng/mL and the AUC(0-inf) [8, 16] was 8290 ng·h/mL. It also gave an AUC(0-t) [8, 16] of 8280 ng·h/mL, a Cmax [8, 16] of 7790 ng/mL and a Tmax [8, 16] of 30 min. For the same compound, the half-life [8, 16] was 208 min, the AUC(0-inf) [8, 17] was 4400 ng·h/mL and the AUC(0-t) [8, 17] was 4390 ng·h/mL. For the same compound, the Cmax [8, 17] was 4640 ng/mL, the Tmax [8, 17] was 30 min and the AUC(0-inf) [8, 18] was 4900 ng·h/mL. For the same compound, the AUC(0-t) [8, 18] was 4890 ng·h/mL, the Cmax [8, 18] was 4580 ng/mL and the Tmax [8, 18] was 30 min. It also gave a bioavailability [8, 18] of 59.1%, a half-life [8, 18] of 76.8 min and an AUC(0-inf) [8, 19] of 44600 ng·h/mL. It also gave an AUC(0-t) [8, 19] of 44500 ng·h/mL, a Cmax [8, 19] of 30100 ng/mL and a Tmax [8, 19] of 30 min. It also gave an AUC(0-inf) [8, 20] of 51700 ng·h/mL, an AUC(0-t) [8, 20] of 51700 ng·h/mL and a Cmax [8, 20] of 30300 ng/mL. The Tmax [8, 20] was 30 min, the bioavailability [8, 20] was 156% and the half-life [8, 20] was 118 min. For the same compound, the “% of total compound related material based on peak area, Human” value [9] was 99%, the “A375 pERK:tERK ratio [10 nM; 2 hr]” value [10] was 0.71 and the “% of total compound related material based on peak area, Rat” value [11] was 95%.
